Results published in ChEMBL document CHEMBL1649210, “Identification of the aminoglycoside resistance determinants armA and rmtC among non-Typhi Salmonella isolates from humans in the United States” (2009).

What was measured:
[1] = (§1) Antimicrobial activity against Salmonella enterica serotype Virchow isolate AM23818 expressing rmtC rRNA methyltransferase gene by broth microdilution method; type: functional, Salmonella enterica subsp. enterica serovar Virchow
[2] = (§2) Antimicrobial activity against Salmonella enterica serotype Stanley isolate AM04864 expressing armA rRNA methyltransferase gene by broth microdilution method; type: functional, Salmonella enterica subsp. enterica serovar Stanley
[3] = system: Salmonella enterica subsp. enterica serovar Virchow; assay: as §1; type: functional
[4] = system: Salmonella enterica subsp. enterica serovar Stanley; assay: as §2; type: functional

Molecule | MIC [1] | MIC [2] | MIC [3] | MIC [4]
NC[C@H]1O[C@H](O[C@H]2[C@H](O)[C@@H](O[C@H]3O[C@H](CO)[C@@H](O)[C@H](N)[C@H]3O)[C@H](N)C[C@@H]2N)[C@H](O)[C@@H](O)[C@@H]1O [KANAMYCIN] | > 64 µg/mL | > 64 µg/mL |  | 
GENTAMICIN |  |  | > 16 µg/mL | > 16 µg/mL
NCC[C@H](O)C(=O)N[C@@H]1C[C@H](N)[C@@H](O[C@H]2O[C@H](CN)[C@@H](O)[C@H](O)[C@H]2O)[C@H](O)[C@H]1O[C@H]1O[C@H](CO)[C@@H](O)[C@H](N)[C@H]1O [AMIKACIN] | > 64 µg/mL | > 64 µg/mL |  | 
